Assay results: patent US20250388534A1 (SHENZHEN SHINEHIGH INNOVATION CO., LTD., priority 2022, published 2025)
“And” between values parts separate entries of the source, which are not always exact repeats. Equal entries are not always repeated. Values belong to the molecule of their own block, whether it stands above or below them.

Assays:
melanoma cells (B16) = test: Cytotoxicity test by melanoma cells (B16); format: cell-based; details: PC 10% DMSO
[1] = DPPH⋅ radical scavenging rate determination; details: 50 to 250 μg/mL, FIG. 6
Description: (§1) The DPPH⋅ radical scavenging rate and ABTS^+⋅ scavenging rate are measured, and the test methods are as follows.
DPPH⋅ radical scavenging rate determination: For each sample solution at different mass concentrations, 0.2 mL is taken and mixed with 0.8 mL of a 60 μmol/L DPPH⋅ solution (prepared with absolute ethanol). The mixture is then reacted for 30 min in the dark, and the absorbance is measured at a wavelength of 517 nm as A1. The absorbance using 70% ethanol solution instead of the sample is measured as A0, and the absorbance using absolute ethanol instead of the DPPH⋅ solution is measured as A2. VC is used as a positive control during the test. The calculation of the DPPH⋅ radical scavenging rate is shown in Formula (2): […]

[2] = ABTS+⋅ scavenging rate determination; details: 50 to 250 μg/mL, FIG. 7
Description: as §1
ABTS^+⋅ scavenging rate determination: ABTS solution (7 mmol/L) and potassium persulfate solution (2.45 mmol/L) are mixed in a 1:1 (v/v) ratio and shaken to prepare the ABTS stock solution, which is allowed to sit at room temperature for 12 h to 16 h (protected from light). Then, the ABTS stock solution is diluted with a phosphate buffer solution of 10 mmol/L and pH 7.4, and the absorbance A0 of the diluted solution is measured at a wavelength of 734 nm, aiming to reach 0.70±0.002. For each sample solution at different mass concentrations, 50 μL is taken and mixed with 750 μL of the ABTS assay solution. The mixture is thoroughly mixed and allowed to react for 6 min. The absorbance is measured at a wavelength of 734 nm as A1, with an absolute ethanol solution used in place of the ABTS solution to measure the absorbance as A2. VC is used as a positive control during the test, and the calculation of the ABTS^+⋅ scavenging rate follows Formula (2).

IL-1α = test: TPA-induced mouse ear edema model, IL-1α in ear tissue by ELISA; format: in vivo, mice; details: salt 0.8 mg/ear, mandelic acid 0.39 mg/ear
Description: (§2) TPA-induced mouse ear edema model and administration method. Male KM mice of SPF grade weighing 20 g to 23 g are acclimatized at a temperature of 25° C. and a relative humidity of 40% to 70% for 24 h (12 h each under alternating light and dark conditions), and given sufficient food and water to allow them to eat freely. The mice are randomly divided into 6 groups: blank group (BC), negative control group (NC), positive control group (PC), and 2 treatment groups. […] After 6 h, the mice are immediately killed by breaking their necks. The ear tissues are ground in liquid nitrogen, then ground tissues are transferred to a 4 mL EP tube, and 1 mL of T-PER tissue protein extraction reagent is added. The solution is mixed thoroughly for about 30 min, and then subjected to intermittent sonication for 10 s at 20 Hz, followed by 2 min of ultrasonic treatment to fully lyse the ear tissues. The mixture is centrifuged at 4° C. and 13000 r/min for 20 min. Supernatants are collected to determine the levels of the inflammatory factors IL-1α, TNF-α, and MIP-2 in ear tissues using the ELISA method.

TNF-α = test: TPA-induced mouse ear edema model, TNF-α in ear tissue by ELISA; format: in vivo, mice; details: salt 0.8 mg/ear, mandelic acid 0.39 mg/ear
Description: as §2

[3] = tested on: chick embryo chorioallantoic membrane (CAM); test: Eye irritation/corrosion chick embryo chorioallantoic membrane assay (irritation score IS)
Description: The test method is as follows.
Preparation of CAM: The viability of 9-day-old chick embryos is checked using fertilized eggs. The shell of the air cell is removed using dental serrated forceps to expose the white egg membrane, with care taken to avoid damaging the integrity of the membrane. A drop of 0.9% sodium chloride solution is added with a pipette to moisten the membrane. The inner membrane is carefully removed with forceps, ensuring that the vascular membrane is not damaged. At this point, the structure of the vascular system is observed again, and a judgment is made regarding its integrity and suitability for the test.
Pre-test: Two chick embryos are taken to assess the reactivity of this batch, with the duration of action limited to within 5 min. […]
Reaction evaluation method: 0.3 mL or 0.3 g of the test substance is applied to the CAM, ensuring that at least 50% of the CAM surface is covered by the test substance. The reaction of the CAM is observed, and the time at which each type of toxicity effect appears within 5 min of application is recorded.
The irritation score (IS) is a test conducted using the reaction time method, with the irritation score (IS) calculated using Formula (3), and the results are retained to two decimal places: […]
secH (bleeding time) refers to the average time observed for bleeding to begin on the CAM membrane, measured in seconds(s). secL (vascular lysis time) refers to the average time observed for vascular lysis to begin on the CAM membrane, measured in seconds(s). secC (clotting time) refers to the average time observed for clotting to begin on the CAM membrane, measured in seconds(s).

MIP-2 = test: TPA-induced mouse ear edema model, MIP-2 in ear tissue by ELISA; format: in vivo, mice; details: salt 0.8 mg/ear, mandelic acid 0.39 mg/ear
Description: as §2

[4] = Thermogravimetric analysis of thermal decomposition behavior; format: physicochemical; details: heating rate 5.0 K/min, FIG. 2
cellular tyrosinase = biological target: T1, cellular tyrosinase (Mus musculus, UniProt P11344); test: Cellular tyrosinase activity inhibition assay in B16 cells; format: cell-based
T1 construct: endogenous in cells; host or cells: B16 melanoma cells
T1 sequence (P11344 19-533): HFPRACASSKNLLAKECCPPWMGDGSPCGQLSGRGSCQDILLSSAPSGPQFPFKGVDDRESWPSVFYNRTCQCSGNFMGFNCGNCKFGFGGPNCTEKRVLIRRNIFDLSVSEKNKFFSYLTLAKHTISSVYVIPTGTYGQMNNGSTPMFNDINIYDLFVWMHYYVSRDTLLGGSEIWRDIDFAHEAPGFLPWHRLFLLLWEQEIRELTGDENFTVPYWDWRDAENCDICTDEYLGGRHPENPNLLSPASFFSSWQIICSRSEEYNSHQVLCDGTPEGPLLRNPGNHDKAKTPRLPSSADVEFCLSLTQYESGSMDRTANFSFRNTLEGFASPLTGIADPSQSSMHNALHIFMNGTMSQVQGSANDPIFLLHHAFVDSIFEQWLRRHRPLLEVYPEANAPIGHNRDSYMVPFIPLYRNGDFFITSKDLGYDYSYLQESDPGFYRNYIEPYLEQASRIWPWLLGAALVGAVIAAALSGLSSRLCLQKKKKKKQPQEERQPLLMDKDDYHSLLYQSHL
Description: (§3) And the cellular melanin content, tyrosinase activity, and tyrosinase inhibition rate are tested within a safe concentration.

[5] = tested on: melanin synthesis in B16 cells; test: Inhibition of melanin synthesis in B16 cells (T/SHRH027-2019); format: cell-based
Description: as §3

tyrosinase = test: In vitro tyrosinase inhibition assay (T-SHRH015-2018); format: biochemical; details: for Cellular tyrosinase activity inhibition (%): in vitro tyrosinase inhibition assay
Description: as §3

[6] = mean of R1-R3, mouse ear tissue 6 h after TPA 2.0 μg/ear
[7] = mouse ear tissue, 6 h after TPA
[8] = replicate R1, mouse ear tissue 6 h after TPA 2.0 μg/ear
[9] = replicate R3, mouse ear tissue 6 h after TPA 2.0 μg/ear
[10] = reaction time method, single chick embryos 1-6, in s
[11] = 0.0006%, 0.0012%, 0.002% (m/V), p<0.05 vs blank control

Molecule: C[S+](C)[O-] [DMSO]
Cell viability (%) (melanoma cells (B16)): 40.26% and 39.46%

Molecule: O=C1O[C@H]([C@@H](O)CO)C(O)=C1O [VC]
DPPH⋅ radical scavenging effect (ranking) [1]: best scavenging effect
ABTS+⋅ scavenging effect (ranking) [2]: best scavenging effect

temperature at which thermal decomposition behavior begins [4]: ~135 °C
Molecule: O=C(O)C(O)c1ccccc1 (centres unmarked) [mandelic acid, a-hydroxyphenylacetic acid]
DPPH⋅ radical scavenging effect (ranking) [1]: weakest effect
IL-1α Concentration (IL-1α; [6]): 28.51 µg/mL
level of IL-1α compared with the negative control group (IL-1α; [7]): decrease
IL-1α concentration, R1 (IL-1α; [8]): 28.59 µg/mL
IL-1α concentration, R3 (IL-1α; [9]): 29.31 µg/mL
TNF-α Concentration (TNF-α; [6]): 85.98 µg/mL
level of TNF-α compared with the negative control group (TNF-α; [7]): decrease
TNF-α concentration, R1 (TNF-α; [8]): 85.34 µg/mL
TNF-α concentration, R3 (TNF-α; [9]): 88.27 µg/mL
irritation classification ([3]; 2% aqueous solution of the salt, equivalent molar mandelic acid solution, CAM assay): mild irritation
Test result: IS ([3]; overall irritation score of 6 chick embryos): IS = 1.03
Bleeding severity score ([3]; reaction time method, single chick embryos 1-6): 301 s
Coagulation score [3, 10]: 301 and 290 and 250
Vascular lysis score [3, 10]: 260 and 280 and 290 and 301 and 210
MIP-2 Concentration (MIP-2; [6]): 50.82 µg/mL
level of MIP-2 compared with the negative control group (MIP-2; [7]): decrease
MIP-2 concentration, R1 (MIP-2; [8]): 51.32 µg/mL
MIP-2 concentration, R3 (MIP-2; [9]): 50.98 µg/mL
ABTS+⋅ scavenging effect (ranking) [2]: weakest effect

temperature at which thermal decomposition behavior begins [4]: around 77 °C
Molecule: NC[C@H]1CC[C@H](C(=O)O)CC1 [tranexamic acid]

Molecule: supramolecular tranexamic acid-citric acid ionic salt [Comparative Example 1]
Cellular tyrosinase activity inhibition (%) (cellular tyrosinase; 0.0006% m/V): 2.17%
effect on cellular tyrosinase activity (cellular tyrosinase; [11]): had an inhibitory effect on cellular tyrosinase activity
Cellular tyrosinase activity inhibition (%) (cellular tyrosinase; 0.0012% m/V): 10.05%
Cellular tyrosinase activity inhibition (%) (cellular tyrosinase; 0.0020% m/V): 11.26%
Inhibition rate of cell melanin content (%) ([5]; 0.0006% m/V): 15.32%
effect on cell melanin synthesis ability [5, 11]: had an inhibitory effect on the cell melanin synthesis ability
Inhibition rate of cell melanin content (%) ([5]; 0.0012% m/V): 18.19%
Inhibition rate of cell melanin content (%) ([5]; 0.0020% m/V): 22.51%
Cellular tyrosinase activity inhibition (%) (tyrosinase; 0.625 % m/V): 5.36%
Cellular tyrosinase activity inhibition (%) (tyrosinase; 1.25 % m/V): 60.49%
Cellular tyrosinase activity inhibition (%) (tyrosinase; 2.50 % m/V): 65.38%
Cellular tyrosinase activity inhibition (%) (tyrosinase; 5 % m/V): 67.57%
Cellular tyrosinase activity inhibition (%) (tyrosinase; 10 % m/V): 69.99%
inhibition rate on tyrosinase (tyrosinase; in vitro, concentrations of 1.25 to 10% (m/V)): above 60%
